According to US8217058B2, “Substituted piperidino phenyloxazolidinones” (Wockhardt Ltd., priority 2006, dated 2012):
Values after ≈ are worked out from the molar mass of the structure shown.

What was measured:
[1] = system: Enterococcus faecium Efa-303; experiment: MIC test (agar dilution); assay type: cell-based; details: Mueller Hinton agar, 24 h at 35° C.
[2] = system: Staphylococcus aureus Smith; experiment: MIC test (agar dilution); assay type: cell-based; details: Mueller Hinton agar, 24 h at 35° C.
[3] = system: Enterococcus faecalis Efe-406 VRE; experiment: MIC test (agar dilution); assay type: cell-based; details: Mueller Hinton agar, 24 h at 35° C.
[4] = system: Staphylococcus aureus MRSA-032; experiment: MIC test (agar dilution); assay type: cell-based; details: Mueller Hinton agar, 24 h at 35° C.
Description: The in vitro MIC methods of test compounds were determined essentially as described in WO 95/25106, U.S. Pat. No. 5,668,286 and EP 0 750 618 B1.
Overnight grown cultures of MRSA-032 organisms in Tryptic Soya broth were diluted in Mueller Hinton Broth to give optical density matching with MacFarland tube 0.5 standard. Cultures were further diluted 1:10 in Mueller Hinton broth. Using Denley's multipoint inoculator, 10^4 cells were deposited on Mueller Hinton agar (Difco) containing range of 2 fold dilutions of test compounds. […] MIC is defined as minimum drug concentration that inhibits test organisms.

[5] = system: Staphylococcus aureus ATCC 29213; experiment: MIC test (agar dilution); assay type: cell-based; details: Mueller Hinton agar, 24 h at 35° C.
[6] = system: Streptococcus pyogenes ATCC 25147; experiment: MIC test (agar dilution); assay type: cell-based; details: Mueller Hinton agar, 24 h at 35° C.
[7] = system: Staphylococcus epidermidis STE-118; experiment: MIC test (agar dilution); assay type: cell-based; details: Mueller Hinton agar, 24 h at 35° C.
[8] = Oral pharmacokinetic study in dog, serum concentrations by HPLC; assay type: in vivo; set-up: Serum concentration: unit not given here; details: for Serum concentration: dog, 15 mg/kg p.o
Description: Oral (15 mg/kg p.o) pharmacokinetic studies were done in dog. Blood samples were collected at time points of 0, 0.08 (not for oral), 0.25, 0.50, 1.0, 1.5, 2.0, 3.0, 4.0, 5.0, 6.0, 8.0, 10.0, 12.0 and 24.0 h. To facilitate IV dosing and collection of blood samples, the dogs were implanted with cannula in cephalic vein. Serum obtained from blood samples was used for HPLC-based analysis.
Serum samples were extracted by solid phase extraction technique using Water's OASIS HLB cartridges. An HPLC-Diode array detection system was used for analysis. Prepared samples were chromatographed on a YMC-AM reversed phase column (150×4.6 mm ID; 5 μm) using an isocratic mobile phase acetate buffer (50 mmol ammonium acetate pH 6.6) acetonitrile, 66:34% v/v (for a representative compound of the invention) at a flow rate of 1 ml/min, measured at λmax 254 nm. Independently prepared analytical standards and quality control samples were analyzed with each set of unknown samples.

[9] = system: Streptococcus pneumoniae ATCC 49619; experiment: MIC test (agar dilution); assay type: cell-based; details: Mueller Hinton agar, 24 h at 35° C.
[10] = system: Streptococcus agalactiae ATCC 13813; experiment: MIC test (agar dilution); assay type: cell-based; details: Mueller Hinton agar, 24 h at 35° C.
[11] = system: Enterococcus faecalis ATCC 29212; experiment: MIC test (agar dilution); assay type: cell-based; details: Mueller Hinton agar, 24 h at 35° C.
[12] = system: Enterococcus faecium Efa-332 VRE; experiment: MIC test (agar dilution); assay type: cell-based; details: Mueller Hinton agar, 24 h at 35° C.
[13] = system: Streptococcus group F ATCC 12392; experiment: MIC test (agar dilution); assay type: cell-based; details: Mueller Hinton agar, 24 h at 35° C.
[14] = system: Streptococcus group C ATCC 12388; experiment: MIC test (agar dilution); assay type: cell-based; details: Mueller Hinton agar, 24 h at 35° C.
[15] = system: Streptococcus group B ATCC 12386; experiment: MIC test (agar dilution); assay type: cell-based; details: Mueller Hinton agar, 24 h at 35° C.
[16] = system: Streptococcus pneumoniae ATCC 6303; experiment: MIC test (agar dilution); assay type: cell-based; details: Mueller Hinton agar, 24 h at 35° C.
[17] = system: Streptococcus group G ATCC 12394; experiment: MIC test (agar dilution); assay type: cell-based; details: Mueller Hinton agar, 24 h at 35° C.
[18] = system: Staphylococcus aureus Mu-50 VISA; experiment: MIC test (agar dilution); assay type: cell-based; details: Mueller Hinton agar, 24 h at 35° C.
[19] = system: Staphylococcus epidermidis STE-110 MRSE; experiment: MIC test (agar dilution); assay type: cell-based; details: Mueller Hinton agar, 24 h at 35° C.
[20] = system: Staphylococcus aureus STA-014; experiment: MIC test (agar dilution); assay type: cell-based; details: Mueller Hinton agar, 24 h at 35° C.
[21] = system: Staphylococcus aureus ATCC 25923; experiment: MIC test (agar dilution); assay type: cell-based; details: Mueller Hinton agar, 24 h at 35° C.

Question: With `COCC1(O)CCN(c2c(F)cc(N3C[C@H](CNC(C)=O)OC3=O)cc2F)CC1` [Example-11, (5S)—N-{3-[3,5-difluoro-4-(4-hydroxy-(4-methoxymethyl)-piperidin-1yl)phenyl]-2-oxo-oxazolidin-5-ylmethyl}-acetamide] as the molecule, how does the MIC [1] read?
Answer: 4 µg/mL (≈ 9.68 µM)

Question: And the MIC [2]?
Answer: 2 µg/mL (≈ 4.84 µM)

Question: What about the MIC [3] of the same molecule?
Answer: 4 µg/mL (≈ 9.68 µM)

Question: What about the MIC [4] of the same molecule?
Answer: 4 µg/mL (≈ 9.68 µM)

Question: And the MIC [5]?
Answer: 2 µg/mL (≈ 4.84 µM)

Question: And the MIC [6]?
Answer: 2 µg/mL (≈ 4.84 µM)

Question: What about the MIC [7] of the same molecule?
Answer: 1 µg/mL (≈ 2.42 µM)

Question: And the “Serum concentrations relative to the MIC value” ([8]; dog pharmacokinetic study, up to 24 h post dosing)?
Answer: significantly higher serum concentrations above the MIC value up to 24 h post dosing

Question: What about the Serum concentration ([8]; time point 0.0 hr) of the same molecule?
Answer: 0.0

Question: And the Serum concentration ([8]; time point 0.25 hr)?
Answer: 4.14

Question: And the Serum concentration ([8]; time point 0.5 hr)?
Answer: 5.41

Question: What about the Serum concentration ([8]; time point 1.0 hr) of the same molecule?
Answer: 8.76

Question: What about the Serum concentration ([8]; time point 2.0 hr) of the same molecule?
Answer: 11.42

Question: What about the Serum concentration ([8]; time point 3.0 hr) of the same molecule?
Answer: 10.97

Question: What about the Serum concentration ([8]; time point 4.0 hr) of the same molecule?
Answer: 10.37

Question: What about the Serum concentration ([8]; time point 5.0 hr) of the same molecule?
Answer: 8.81

Question: And the Serum concentration ([8]; time point 6.0 hr)?
Answer: 7.28 ± 2.14

Question: And the Serum concentration ([8]; time point 8.0 hr)?
Answer: 5.82 ± 1.58

Question: And the Serum concentration ([8]; time point 10.0 hr)?
Answer: 4.50 ± 1.03

Question: What about the Serum concentration ([8]; time point 12.0 hr) of the same molecule?
Answer: 3.47 ± 1.25

Question: What about the Serum concentration ([8]; time point 24.0 hr) of the same molecule?
Answer: 2.19 ± 1.91

Question: What about the MIC [9] of the same molecule?
Answer: 2 µg/mL (≈ 4.84 µM)

Question: And the MIC [10]?
Answer: 2 µg/mL (≈ 4.84 µM)

Question: What about the MIC [11] of the same molecule?
Answer: 2 µg/mL (≈ 4.84 µM)

Question: What about the MIC [12] of the same molecule?
Answer: 2 µg/mL (≈ 4.84 µM)

Question: And the MIC [13]?
Answer: 2 µg/mL (≈ 4.84 µM)

Question: And the MIC [14]?
Answer: 2 µg/mL (≈ 4.84 µM)

Question: What about the MIC [15] of the same molecule?
Answer: 2 µg/mL (≈ 4.84 µM)

Question: What about the MIC [16] of the same molecule?
Answer: 2 µg/mL (≈ 4.84 µM)

Question: And the MIC [17]?
Answer: 2 µg/mL (≈ 4.84 µM)

Question: And the MIC [18]?
Answer: 2 µg/mL (≈ 4.84 µM)

Question: What about the MIC [19] of the same molecule?
Answer: 1 µg/mL (≈ 2.42 µM)

Question: What about the MIC [20] of the same molecule?
Answer: 4 µg/mL (≈ 9.68 µM)

Question: And the MIC [21]?
Answer: 2 µg/mL (≈ 4.84 µM)
